Data on 5 compounds can be found in article PMC12203525, “The insight into the biology of five homologous lectins produced by the entomopathogenic bacterium and nematode symbiont Photorhabdus laumondii” (Glycobiology, 2025).

Where two headings read alike, the source gives them in different places.

The target of experiment [1] is PLL2. The arrangement: method as in Fujdiarová et al, 2021, Faltinek et al, 2019. Particulars: ref Fujdiarová et al, 2021, Faltinek et al, 2019, cited from earlier work; for Kd: ITC.
In experiment [2] the test system is PLL2. Set-up: method as in Faltinek et al. 2019; Fujdiarová et al. 2021. Particulars: inhibition of PLL2 binding to immobilized MGMR; ref Faltinek et al. 2019; Fujdiarová et al. 2021; read-out: IC50; cited from earlier work.
Experiment [3] deals with PLL3. Set-up: method as in Faltinek et al. 2019; Fujdiarová et al. 2021. The note with it: inhibition of PLL3 binding to immobilized MGMR; ref Faltinek et al. 2019; Fujdiarová et al. 2021; read-out: IC50; cited from earlier work.
The target of experiment [4] is PLL3. Set-up: method as in Fujdiarová et al, 2021, Faltinek et al, 2019. The note with it: ref Fujdiarová et al, 2021, Faltinek et al, 2019, cited from earlier work; for Kd: ITC.
Experiment [5] deals with T1, PLL4 (Photorhabdus laumondii subsp. laumondii, UniProt Q7N8I6). In words: Isothermal titration calorimetry (ITC). Format: binding, Photorhabdus laumondii subsp. laumondii TT01. The note with it: for KD / Kd: ITC. How it is done:
(§1) ITC experiments were performed using an Auto-ITC200 calorimeter or Automated PEAQ-ITC calorimeter (both Malvern Panalytical, Malvern, UK). Measurements were carried out at 25 °C in the Tris buffer. Before the analyses, lectins were extensively dialyzed against the Tris buffer and the dialysate was used to dissolve ligands. The protein (0.1 mM or 0.2 mM) in the cell was titrated with 2 μL injections of the ligand (20 mM or 40 mM). […] Experiments for each interacting ligand were carried out in triplicates. Integrated heat effects were evaluated by nonlinear regression using a single-site binding model in Origin 7 (OriginLab, Northampton, USA) ([Wiseman et al. 1989]). Triplicate measurements were fitted simultaneously using a global fit approach. Due to the low affinity of the interaction, the binding stoichiometry was fixed during the fitting.

For experiment [6], the target named is T2, PLL5 (Photorhabdus laumondii subsp. laumondii, UniProt Q7N8I5). Description: Isothermal titration calorimetry (ITC). The note with it: for KD / Kd: ITC. Type of experiment: binding, Photorhabdus laumondii subsp. laumondii TT01. How it is done:
as §1

The target of experiment [7] is T3, PLL (Photorhabdus laumondii subsp. laumondii, UniProt Q7N8J0). Description: Isothermal titration calorimetry (ITC). Type of experiment: binding, Photorhabdus laumondii subsp. laumondii TT01. The protocol:
as §1

The target of experiment [8] is T1, PLL4. In words: SPR inhibition assay on the MGMR channel. The arrangement: species or system Photorhabdus laumondii subsp. laumondii TT01. The note with it: inhibition of PLL4 (250 nM) binding to immobilized MGMR. How it is done: (§2) SPR experiments were carried out on BIAcore T200 or BIAcore S200 instruments (GE Healthcare, UK). Sugar moieties were immobilized on the chip surface using the standard procedures according to the manufacturer’s instructions. Measurements with immobilized MGMR were performed on the chip prepared previously (high-density chip) ([Fujdiarová et al. 2021]). Measurements with immobilized α-L-fucose were performed on the streptavidin chip (GE Healthcare, UK). Biotinylated α-L-fucose was immobilized on channel 2 to yield a final response of 29 RU, unmodified channel 1 was used as a control.
(§3) Measurements were performed in Tris buffer with the addition of 0.05% Tween 20 at a flow rate of 30 μl/min at 25 °C. […] 50 mM NaOH for 30 s (flow 30 μl/min) was used for chip regeneration. To determine KDs (app) towards MGMR, 2-fold dilution series of lectins was used (PLL: 0.048 – 50 μM, PLL4: 0.008 - 2 μM; PLL5: 1.9 – 500 nM). The data were evaluated with the BIAcore T200 or BIAcore S200 evaluation software using a steady state approach. To determine KD(app) towards α-L-fucose, 2-fold dilution series of lectins was used (PLL: 1.25 – 20 μM, PLL4: 0.39 – 12.5 μM; PLL5: 0.12 – 30 μM). The data were evaluated with the BIAcore T200 or BIAcore S200 evaluation software using a steady state approach (PLL5) or a single-cycle kinetics approach (PLL, PLL4). For SPR inhibition experiments on the MGMR channel, 250 nM PLL, 250 nM PLL4 or 62 nM PLL5, respectively, was used. Proteins of the given concentration were mixed with a concentration series of tested inhibitors (0.01 - 0.4 M). Proteins without an inhibitor were used as a control. The response of the lectin bound to the sugar surface at equilibrium was plotted against the concentration of inhibitor in order to determine IC50. The response in the appropriate blank channel was subtracted prior to all evaluations.

Experiment [9] concerns the target T2, PLL5. In words: SPR inhibition assay on the MGMR channel. Particulars: inhibition of PLL5 (62 nM) binding to immobilized MGMR. The arrangement: species or system Photorhabdus laumondii subsp. laumondii TT01. How it is done:
as §2, §3

Experiment [10] deals with T3, PLL. In words: SPR inhibition assay on the MGMR channel. Particulars: inhibition of PLL (250 nM) binding to immobilized MGMR. The arrangement: species or system Photorhabdus laumondii subsp. laumondii TT01. How it is done:
as §2, §3

Experiment [11] addresses PLL3. The arrangement: method as in Faltinek et al. 2019; Fujdiarová et al. 2021. Particulars: PLL3 binding to the immobilized sugar, SPR; ref Faltinek et al. 2019; Fujdiarová et al. 2021; read-out: KD(app); cited from earlier work.
In experiment [12] the target is PLL2. Set-up: method as in Faltinek et al. 2019; Fujdiarová et al. 2021. Particulars: PLL2 binding to the immobilized sugar, SPR; ref Faltinek et al. 2019; Fujdiarová et al. 2021; read-out: KD(app); cited from earlier work.
In experiment [13] the target is T1, PLL4. Description: SPR, apparent KD on immobilized sugar. The arrangement: species or system Photorhabdus laumondii subsp. laumondii TT01. Particulars: PLL4 binding to the immobilized sugar, 25 °C, read-out: KD(app). How it is done: as §2, §3
Experiment [14] has as its target T2, PLL5. Description: SPR, apparent KD on immobilized sugar. The note with it: PLL5 binding to the immobilized sugar, 25 °C, read-out: KD(app). The arrangement: species or system Photorhabdus laumondii subsp. laumondii TT01. The protocol:
as §2, §3

The target of experiment [15] is T3, PLL. Description: SPR, apparent KD on immobilized sugar. Set-up: species or system Photorhabdus laumondii subsp. laumondii TT01. Particulars: PLL binding to the immobilized sugar, 25 °C, read-out: KD(app). The protocol:
as §2, §3

Experiment [16] addresses T1, PLL4. Description: Glycan microarray screening (634 saccharide ligands). Particulars: DyLight488-labelled PLL4, 200 μg/mL. Type of experiment: binding, Photorhabdus laumondii subsp. laumondii TT01. How it is done:
Lectins were fluorescently labelled with DyLight 488 according to the manufacturer’s instructions and the unbound dye was extensively dialyzed out of the protein solution. The microarray chip (Semiotik LLC, Moscow, Russia, batch OSPS280715) containing 634 saccharide ligands, each in 6 replicates, was treated with PBS (137 mM NaCl, 2.7 mM KCl, 8 mM Na2HPO4, […], pH 7.4) with added 0.1% Tween-20 for 15 min. The labelled proteins (200 μg/mL) were then separately applied to the chip surface and incubated in a humidity chamber at 37 °C for 1 h. After the incubation, the unbound protein was washed out with PBS containing 0.05% Tween-20 and deionized water. The chip was dried by airflow and scanned using an InnoScan1100 AL (Innopsys, Carbonne, France) with a 488 nm laser. The data were analyzed with the software Mapix 8.2.2 and an online glycan chip converter (Semiotic, https://rakitko.shinyapps.io/semiotik).

Setting [17] is: PLL2, stoichiometry N fixed to 8.
Where [18] appears, read: PLL3, stoichiometry N fixed to 2.
The mark [19] stands for this setting: PLL3, stoichiometry N fixed to 4.
Setting [20] is: PLL3, stoichiometry N fixed to 6.
[21] abbreviates: PLL3, stoichiometry N fixed to 8.
[22] abbreviates: PLL4, stoichiometry N fixed to 2.
Setting [23] is: PLL4, stoichiometry N fixed to 4.
The mark [24] stands for this setting: PLL4, stoichiometry N fixed to 6.
The mark [25] stands for this setting: PLL4, stoichiometry N fixed to 8.
The mark [26] stands for this setting: PLL5, stoichiometry N fixed to 2.
[27] abbreviates: PLL5, stoichiometry N fixed to 4.
[28] abbreviates: PLL5, stoichiometry N fixed to 6.
The mark [29] stands for this setting: PLL5, stoichiometry N fixed to 8.
[30] abbreviates: ITC, stoichiometry N fixed to 2.
The mark [31] stands for this setting: ITC, stoichiometry N fixed to 4.
Where [32] appears, read: ITC, stoichiometry N fixed to 6.
The mark [33] stands for this setting: ITC, stoichiometry N fixed to 8.
Setting [34] is: PLL2, stoichiometry N fixed to 4.

T1 sequence (Q7N8I6 entry or part of it): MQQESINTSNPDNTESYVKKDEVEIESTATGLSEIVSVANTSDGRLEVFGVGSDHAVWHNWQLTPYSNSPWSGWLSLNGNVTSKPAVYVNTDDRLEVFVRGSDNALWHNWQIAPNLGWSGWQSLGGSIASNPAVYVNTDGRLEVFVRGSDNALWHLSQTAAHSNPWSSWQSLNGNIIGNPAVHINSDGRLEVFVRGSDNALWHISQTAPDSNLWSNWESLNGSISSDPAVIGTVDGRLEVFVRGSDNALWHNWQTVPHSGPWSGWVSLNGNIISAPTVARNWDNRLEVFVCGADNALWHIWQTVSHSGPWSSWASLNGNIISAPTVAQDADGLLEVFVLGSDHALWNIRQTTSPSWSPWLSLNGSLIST
T2 sequence (Q7N8I5 entry or part of it): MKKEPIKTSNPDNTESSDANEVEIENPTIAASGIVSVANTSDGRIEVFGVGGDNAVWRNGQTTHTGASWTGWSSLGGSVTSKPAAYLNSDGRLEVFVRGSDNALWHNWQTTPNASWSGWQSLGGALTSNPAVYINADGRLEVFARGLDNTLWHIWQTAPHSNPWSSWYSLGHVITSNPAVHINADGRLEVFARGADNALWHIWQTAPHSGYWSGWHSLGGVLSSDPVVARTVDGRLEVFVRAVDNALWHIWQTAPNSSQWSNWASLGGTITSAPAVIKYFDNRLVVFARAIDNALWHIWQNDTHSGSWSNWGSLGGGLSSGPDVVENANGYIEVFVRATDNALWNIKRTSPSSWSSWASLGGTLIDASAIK
T3 sequence (Q7N8J0 entry or part of it): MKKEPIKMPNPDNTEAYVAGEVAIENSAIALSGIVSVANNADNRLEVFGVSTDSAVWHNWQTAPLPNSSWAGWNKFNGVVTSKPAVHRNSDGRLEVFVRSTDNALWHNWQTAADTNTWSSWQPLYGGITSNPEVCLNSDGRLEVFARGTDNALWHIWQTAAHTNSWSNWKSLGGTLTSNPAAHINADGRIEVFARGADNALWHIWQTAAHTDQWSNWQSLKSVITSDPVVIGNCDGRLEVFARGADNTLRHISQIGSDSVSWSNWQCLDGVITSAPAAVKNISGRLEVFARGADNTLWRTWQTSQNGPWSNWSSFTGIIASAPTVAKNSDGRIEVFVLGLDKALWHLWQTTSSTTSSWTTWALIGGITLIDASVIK

As to `CO[C@@H]([C@H](O)[C@H](O)CO)[C@@H](O)C=O` [3OMG, 3-O-methyl-D-glucose], the Kd was 11.2 ± 0.8 mM at PLL2 [1] (setting [17]); 11.5 ± 1.55 mM on PLL3 [4] (setting [18]); 11.1 ± 1.5 mM on PLL3 [4] (setting [19]); 10.7 ± 1.5 mM on PLL3 [4] (setting [20]); 10.2 ± 0.62 mM on PLL3 [4] (setting [21]). Further, the “interaction with the sugar in ITC (in words)” value with PLL2 [1] (PLL2) is given as “interacted”; in the experiment with PLL3 [4] (PLL3) it was “interacted”; on PLL4 [5] (PLL4), “did not bind these sugars significantly”; at PLL5 [6] (PLL5), “did not bind these sugars significantly”; at PLL [7], “did not bind these sugars significantly”. Besides, the half-inhibitory concentration (IC50) was 5.2 ± 0.91 mM in the experiment on PLL2 [2]; 26.4 ± 2.84 mM with PLL3 [3]; 13.1 ± 0.84 mM on PLL4 [8]; 16.9 ± 2.69 mM at PLL5 [9]; 48.1 ± 14.9 mM on PLL [10]. Also, the KD entry at PLL4 [5] (setting [22]), on PLL4 [5] (setting [23]), at PLL4 [5] (setting [24]), on PLL4 [5] (setting [25]), on PLL5 [6] (setting [26]) and on PLL5 [6] (setting [27]) was “No int” each time. Further, the KD entry on PLL5 [6] (setting [28]), on PLL5 [6] (setting [29]), at PLL [7] (setting [30]), on PLL [7] (setting [31]), at PLL [7] (setting [32]) and at PLL [7] (setting [33]) was “No int” each time.

As to `C[C@H](O)[C@@H](O)[C@@H](O)[C@H](O)C=O` [L-Fuc, L-fucose], the Kd at PLL2 [1] (PLL2, stoichiometry N fixed to 2) is 2.8 ± 0.07 mM; on PLL2 [1] (setting [34]), 2.6 ± 0.08 mM; at PLL2 [1] (PLL2, stoichiometry N fixed to 6), 2.4 ± 0.08 mM; at PLL2 [1] (setting [17]), 2.1 ± 0.1 mM; on PLL3 [4] (setting [18]), 3.6 ± 0.14 mM; on PLL3 [4] (setting [19]) it was 3.3 ± 0.12 mM. The Kd on PLL3 [4] (setting [20]) was 3.1 ± 0.1 mM; at PLL3 [4] (setting [21]), 2.9 ± 0.1 mM; on PLL4 [5] (setting [22]), 31.2 ± 0.95 mM; on PLL4 [5] (setting [23]) it was 29.9 ± 0.9 mM; on PLL4 [5] (setting [24]) it was 28.6 ± 0.89 mM; at PLL4 [5] (setting [25]) it was 27.2 ± 0.86 mM. The Kd was 16.6 ± 1.02 mM on PLL5 [6] (setting [26]), 16 ± 1.01 mM on PLL5 [6] (setting [27]), 15.4 ± 1 mM on PLL5 [6] (setting [28]) and 14.7 ± 0.99 mM on PLL5 [6] (setting [29]). In addition, the IC50 is 1.2 ± 0.04 mM in the experiment with PLL2 [2]; 2.5 ± 0.09 mM with PLL3 [3]; 5.7 ± 0.21 mM on PLL4 [8]; 3.6 ± 0.13 mM at PLL5 [9]; 19.5 ± 7.5 mM on PLL [10]. Also, the KD result at PLL [7] (setting [30]), on PLL [7] (setting [31]), at PLL [7] (setting [32]) and on PLL [7] (setting [33]) was “No int” in each case.

As for `COC[C@H]1O[C@@H](O[C@@H]2[C@@H](OC)[C@@H](OC)[C@H](O)O[C@H]2C)[C@H](O)[C@@H](OC)[C@@H]1O` [MGMR, 3,6-O-Me2-D-Glcβ1-4(2,3-O-Me2)-L-Rhaα], the Kd is 0.607 ± 0.046 mM on PLL3 [11]; 0.0061 ± 0.0002 µM at PLL2 [12]; 0.0008 ± 6e-05 mM at PLL4 [13]; 0.0003 ± 3e-05 mM at PLL5 [14]; 0.044 ± 0.0046 mM at PLL [15].

On to `CO[C@@H]1O[C@@H](C)[C@@H](O)[C@@H](O)[C@@H]1O` [αMeFuc, methyl-α-L-fucoside], for which the Kd was 0.4 ± 0.02 mM on PLL2 [1] (setting [34]); 0.7 ± 0.03 mM on PLL3 [4] (setting [19]); 4.9 ± 0.08 mM at PLL4 [5] (setting [23]); 4.2 ± 0.17 mM at PLL5 [6] (setting [27]); 3.6 ± 0.07 mM at PLL [7] (setting [30]). The concentration for half-maximal inhibition (IC50) was 0.1 ± 0.01 mM with PLL2 [2]; 1 ± 0.05 mM in the experiment with PLL3 [3]; 1.4 ± 0.04 mM on PLL4 [8]; 1.7 ± 0.13 mM at PLL5 [9]; 4 ± 1.35 mM at PLL [10].

As for α-L-fucoside, the Kd at PLL3 [11] was 0.322 ± 0.086 mM; on PLL2 [12] it was 117 ± 4.8 µM; on PLL4 [13], 0.0043 ± 0.0001 mM; on PLL5 [14] it was 0.064 ± 0.0086 mM; on PLL [15], 0.0085 ± 0.0002 mM. Further, the “glycan array binding (in words)” value on PLL4 [16] is recorded as “recognized”.
